Assay results taken from US11377423B2, “Inhibitors of histone deacetylase” (The Broad Institute, Inc., priority 2012, dated 2022).

Legend:
HDAC3 = HDAC3 (Homo sapiens (Human), UniProt O15379)
HDAC1 = HDAC1 (Homo sapiens (Human), UniProt Q13547); assay: Kinetics of the inhibition of HDAC1; conditions: HDAC1 residence
HDAC1, sequence (Q13547 whole entry): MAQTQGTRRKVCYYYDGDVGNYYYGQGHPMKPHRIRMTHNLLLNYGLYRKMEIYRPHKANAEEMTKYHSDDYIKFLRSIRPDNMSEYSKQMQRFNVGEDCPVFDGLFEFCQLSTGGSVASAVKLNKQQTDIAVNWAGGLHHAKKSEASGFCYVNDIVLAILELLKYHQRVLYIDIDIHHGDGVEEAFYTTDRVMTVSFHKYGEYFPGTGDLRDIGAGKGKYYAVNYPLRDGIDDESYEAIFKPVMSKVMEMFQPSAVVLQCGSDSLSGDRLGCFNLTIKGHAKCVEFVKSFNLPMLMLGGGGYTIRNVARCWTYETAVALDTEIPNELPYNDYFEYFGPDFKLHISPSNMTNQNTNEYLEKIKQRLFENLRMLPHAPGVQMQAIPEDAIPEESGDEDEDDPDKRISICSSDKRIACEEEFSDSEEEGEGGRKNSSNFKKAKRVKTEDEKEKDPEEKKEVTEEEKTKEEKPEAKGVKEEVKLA
Procedure: HDAC1 inactivation kinetic constant was determined by curve-fitting of the plot to a first-order rate equation.

HDAC3, sequence (O15379 whole entry): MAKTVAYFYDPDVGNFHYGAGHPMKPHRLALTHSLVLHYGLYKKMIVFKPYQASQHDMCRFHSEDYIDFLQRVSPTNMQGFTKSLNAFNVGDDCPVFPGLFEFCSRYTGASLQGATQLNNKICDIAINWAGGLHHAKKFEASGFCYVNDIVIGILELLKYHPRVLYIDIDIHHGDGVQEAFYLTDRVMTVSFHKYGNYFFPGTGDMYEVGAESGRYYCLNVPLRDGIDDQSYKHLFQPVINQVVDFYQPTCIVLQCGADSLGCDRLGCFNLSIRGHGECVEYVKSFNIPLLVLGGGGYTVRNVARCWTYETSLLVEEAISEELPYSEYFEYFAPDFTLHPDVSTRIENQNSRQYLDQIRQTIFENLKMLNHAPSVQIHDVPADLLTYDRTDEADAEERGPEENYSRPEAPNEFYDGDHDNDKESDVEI
HDAC3, sequence (Q9Y618 395-489 partner): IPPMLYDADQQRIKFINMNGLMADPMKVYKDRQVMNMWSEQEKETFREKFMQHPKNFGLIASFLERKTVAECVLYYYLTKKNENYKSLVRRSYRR

`O=C(CCCCCCC(=O)Nc1ccccc1)NO` [SAHA, N1-hydroxy-N8-phenyl-octanediamide, reference compound] was tested, and the T1/2 (HDAC3) was less than 4 min and the T1/2 (HDAC1) was less than 4 min.
